For 23 compounds, inhibition results are on record in US20140309244A1, “NOVEL MICROBIOCIDES” (SYNGENTA PARTICIPATIONS AG, priority 2010, published 2014).

The inhibition is the drop in the measured response relative to a control, in per cent.

Some results are limits rather than exact numbers.

What all share (format): cell-based
Experiment [1] has as its system Botryotinia fuckeliana (Botrytis cinerea). As to the kind of experiment: Botryotinia fuckeliana (Botrytis cinerea) / liquid culture (gray mould). To be noted: Vogels broth, 96-well plate, 24° C., 3-4 days after application, read-out: control of Botryotinia fuckeliana (inhibition of growth, photometric).
Experiment [2] relates to Mycosphaerella graminicola (Septoria tritici). As to the kind of experiment: Mycosphaerella graminicola (Septoria tritici) / liquid culture (Septoria blotch). The conditions noted are these: Zymoseptoria tritici, PDB potato dextrose broth, 96-well plate, 24° C., 4-5 days after application, read-out: control of Mycosphaerella graminicola (inhibition of growth, photometric).

The subject of experiment [3] is Mycosphaerella arachidis (Cercospora arachidicola). Put plainly: Mycosphaerella arachidis (Cercospora arachidicola) / liquid culture (early leaf spot). To be noted: PDB potato dextrose broth, 96-well plate, 24° C., 4-5 days after application, read-out: control of Mycosphaerella arachidis (inhibition of growth, photometric).

As for `CO/N=C(\C)c1cccc(CCCON=C(C)c2ccnc(-c3cccc(C)n3)n2)n1` (single isomer, unassigned) [P.63B], the inhibition at 200 ppm in experiment [1] was not below 80%. For the compound `C/C(=N\OCCCc1cccc(/C(C)=N/O)n1)c1cccc(C)n1` [P.11], the inhibition at 200 ppm in experiment [1] and in experiment [2] was not below 80% each time.

Consider `CO/N=C(\C)c1cccc(CCCO/N=C(\C)c2cccc(-c3ccccc3O)n2)n1` [P.16], for which the inhibition at 200 ppm in experiment [2] was not below 80%. Turning to `CO/N=C(\C)c1cccc(CCCO/N=C(\C)c2ccccn2)n1` [P.17], the inhibition at 200 ppm in experiment [1] is not below 80%. `C#Cc1cccc(/C(C)=N/OCCCc2cccc(/C(C)=N/OC)n2)n1` [P.18]: the inhibition at 200 ppm in experiment [1] and in experiment [3] was not below 80% throughout. Regarding `CO/N=C/c1cccc(CCCO/N=C(\C)c2cccc(C)n2)n1` [P.21], in experiment [1], the inhibition at 200 ppm is not below 80%. For the compound `CO/N=C(\C)c1cccc(CCCO/N=C(\C)c2cccc(C(OC)OC)n2)n1` [P.29], the inhibition at 200 ppm in experiment [1], in experiment [3] and in experiment [2] was not below 80% in each case. Regarding `CO/N=C(\C)c1cccc(CCCO/N=C(\C)c2cccc(-c3ccccc3)n2)n1` [P.33], the inhibition at 200 ppm in experiment [1], in experiment [3] and in experiment [2] was not below 80% each time. `CO/N=C(\C)c1cccc(CCCO/N=C(\C)c2ccc3ccccc3n2)n1` [P.34]: the inhibition at 200 ppm in experiment [1] and in experiment [2] was not below 80% in each case.

As for `CO/N=C(\C)c1cccc(CCCO/N=C/c2cccc(Oc3ccccc3)n2)n1` [P.39], the inhibition at 200 ppm in experiment [1], in experiment [3] and in experiment [2] was not below 80% throughout. Consider `CO/N=C(\C)c1cccc(CCCO/N=C(\C)c2cc(C(C)(C)C)ccn2)n1` [P.45], for which the inhibition at 200 ppm in experiment [1], in experiment [3] and in experiment [2] was not below 80% in each case. Take `CCOC(=O)c1cc(C)cc(/C(C)=N/OCCCc2cccc(/C(C)=N/OC)n2)n1` [P.47]: the inhibition at 200 ppm in experiment [1], in experiment [3] and in experiment [2] was not below 80% in each case. On to `C=CCOc1ccc(C)nc1/C=N/OCCCc1cccc(/C(C)=N/OC)n1` [P.49], for which the inhibition at 200 ppm in experiment [3] is not below 80%. Still for that read-out and setting: as for `CO/N=C(\C)c1cccc(CCCO/N=C2\CCCc3cnc(C)nc32)n1` [P.60, 2-Methyl-6,7-dihydro-5H-quinazolin-8-one O-[3-(6-(1-((E)-methoxyimino)-ethyl)-pyridin-2-yl)-propyl]-oxime], the figure is not below 80%. For the compound `CO/N=C(\C)c1cccc(CCCO/N=C2\CCCc3cnc(-c4cccc(C)n4)nc32)n1` [P.64], the inhibition at 200 ppm in experiment [1] is not below 80%. Still for that read-out and setting: as for `CO/N=C(\C)c1cccc(CCCO/N=C2\CCCc3cncnc32)n1` [P.65], the figure is not below 80%.

For the compound `CO/N=C(\C)c1cccc(CCCO/N=C(\C)c2nc(OC)cc(OC)n2)n1` [P.66], the inhibition at 200 ppm in experiment [1] and in experiment [3] was not below 80% in each case.

Consider `CO/N=C(\C)c1cccc(CCCO/N=C(\c2ccccc2)c2nc(OC)cc(OC)n2)n1` [P.68], for which the inhibition at 200 ppm in experiment [3] and in experiment [2] was not below 80% throughout. `CO/N=C(\C)c1cccc(CCCO/N=C(\C)c2cc(C)c3ccccc3n2)n1` [P.71]: the inhibition at 200 ppm in experiment [1] was not below 80%. With `CO/N=C(\C)c1cccc(CCCO/N=C(\C)c2cccc(C#CC(C)(C)C)n2)n1` [P.79], the inhibition at 200 ppm in experiment [1] and in experiment [3] was not below 80% each time.

For `CCCCc1c2c(nc3ccc(Cl)cc13)/C(=N/OCCCc1cccc(/C(C)=N/OC)n1)CCC2` [P.85], the inhibition at 200 ppm in experiment [1] and in experiment [2] was not below 80% in each case.

`CO/N=C(\C)c1cccc(CCCON=C(c2ccc(-n3cccc3)c(C)c2)c2ccccn2)n1` [P.107]: the inhibition at 200 ppm in experiment [3] was not below 80%. Same read-out and setting: as for `CO/N=C(\C)c1cccc(CCCON=C(CCN(C)C)c2cccc(Br)n2)n1` [P.108], the figure is not below 80%.
